Laboratory results published in patent publication US20120114639A1, “COMPOSITIONS AND METHODS FOR INHIBITING VIRAL AND/OR BACTERIAL INFECTIONS” (priority 2010, published 2012).
pIC50: −log10 of the molar value.

Tests used:
[1] = system: p-EGFR, p-KGFR and downstream effector p-ERK1/2; assay: EGFR and KGFR signal activation, phospho-protein immunoblot in serum-starved HaCaT cells; assay type: cell-based, human; details: 10 minutes ligand exposure; 100 nM PD168393, 1 μM PD173074, 100 μM genistein, 100 μM daidzein, 600 nM cetuximab
Experimental: FIG. 6. […] (A-B) Immunoblot of p-EGFR, p-KGFR and downstream effector p-ERK1/2 following 10 minutes ligand exposure (listed at the left of each blot: EGF, KGF, HPV16 PsV; lane 2) in serum-starved HaCaT cells. Mock exposed cells were negative controls (lane 1); ligand controls included 10 ng/ml EGF and 10 ng/ml KGF exposure (10 minutes). […] Actin is detected as a loading control. (C-D) Immunoblot of nuclear cell fractions and confocal microscopy localization of p-ERK1/2 following EGF and HPV16 exposure in serum-starved HaCaT cells at indicated times post-exposure. (C) Immunoblot for p-ERK1/2 in nuclear fractions from exposed cells. (D) Immunofluorescent confocal microscopy for localization of p-ERK1/2 (red) in PsV exposed cells. DAPI was used as a nuclear marker and was pseudocolored green to facilitate efficient co-localization of p-ERK1/2 in the nucleus. Parameters of lasers intensities were kept constant during the imaging.
Subconfluent HaCaT cells were serum-starved for 3-4 hours in Tyrode's buffer containing 0.05% BSA. After adding ˜100 vge/cell HPV16 PsV, 10 ng/ml EGF or 10 ng/ml KFG, cells were incubated at 37° C. for 10 minutes before transferring to ice and solubilizing cells with RIPA buffer. In some experiments cells were incubated with various inhibitors in Tyrode's buffer for 45 minutes and after Tyrode's washes, were incubated with virus as above in the presence of inhibitors. Lysates were clarified, mixed with Laemmli buffer and boiled for five minutes prior to SDS-PAGE Tmmunoblot was performed with various monoclonal and polyclonal antibodies: p-EGFR, p-KGFR (p-FGFR2b), p-ERK, actin. Nuclear fractionation was performed for detection of p-ERK movement into the nucleus. HaCaT cells were starved 4 h in Tyrode's solution containing 0.05% BSA, then exposed to HPV or EGF for various times. Cells were solubilized with NP40 lysis buffer and centrifuged. The pellet was incubated with nuclear extraction buffer. Following incubation on ice for one hour, the extract was clarified and the supernatant subjected to SDS-PAGE and immunoblot for analysis of p-ERK content.

HPV16 [2] = assay: HPV16 PsV infection of HaCaT cells, luciferase assay; assay type: cell-based, human papillomavirus; details: for block of HPV16 infection / reduction of infectivity: HaCaT in CM, 24 hours in presence of inhibitor, 1 μM AG1478, 100 nM PD168393, 100 μM genistein, 1 μM PD173074, 100-600 nM cetuximab, 100 vge/cell; for visible toxicity in dose-response analysis: HaCaT cells, dose-response of infection inhibition; for pIC50: Human papillomavirus 16, HaCaT, read-out: IC50 of HPV16 infection inhibition; for restoration of HPV16 infectivity in SFM by added factor: serum-starved HaCaT, HPV16 bound in SFM, 24 hours in SFM plus factor, compared to CM
Experimental: FIG. 2. […] (A, B) Immunoblot for syndecan-1 (polyclonal syndecan-1 Ab) after 24 hours at 37° C. in CM (A) or post starvation in SFM and after six hours at 37° C. in Tyrode's Buffer (B); immunoblot for HPV16 L1 released into CM post virus binding for indicated times (C) or 24 hours (E). […] Cells were untreated (U) or pre-treated with BM or MM for one hour, then exposed to HPV16 PsV in the presence of inhibitors in CM. Infection was assayed by quantifying luciferase levels at 24 hours p.i. (F). Data are represented as mean±SEM of three experiments. (G-H) IC50 of HPV16 infectivity inhibition by MMIP inhibitors batimastat and mariniastat. HaCaT cells incubated with serial dilutions of batimastat or marimastat in CM, for one hour before incubation with 100 viral genome equivalents (vge)/cell HPV16, one hour at 4° C. After washing away unbound virus, cells were incubated for 24 hours at 37° C. in the presence of inhibitors. HPV16 infection was measured with luciferase assay. Data are represented as mean±SEM of 3 experiments.
(§1) FIG. 7. […] (A) Relative HPV16 infection of HaCaT cells in the presence of specific GFR and protein tyrosine kinase inhibitors. […] Cells were exposed to HPV16 PsV at 100 vge/cell for one hour at 4° C., then washed extensively and shifted to 37° C. in the presence of the indicated inhibitor in CM for 24 hours at which time they were analyzed for luciferase expression. Data are represented as mean±SEM of three experiments. (B-C) EGFR knockdown was accomplished using siRNA to EGFR and the percent of EGFR protein remaining in EGFR-siRNA transfected HaCaT cells was determined by immunoblot and compared by densitometry to EGFR levels in cells transfected with a negative control siRNA at 48 hours post transfection. Four separate transfections were analyzed (B) and HPV16 PsV infection levels were measured at 24 hours post infection (48 hours post transfection) in each (C). Error bars represent the average of triplicate luciferase readings from the four transfections. (D) Cells were pre-treated four hours with 100 μm monastrol, pre-treated with monastrol for four hours plus PD168393 for duration, or pre-treated with PD168393 for four hours plus monastrol for duration. […] HaCaT cells starved in SFM (four hours) were exposed to HPV16 in CM (positive control) or SFM. After washing away unbound virus, cells were incubated for 24 hours in CM, Ty (Tyrode's buffer containing 0.05% BSA), SFM, syndecan-1 depleted CM (IP-syd), or EGF-depleted CM (IP-EGF). Infection was quantified by luciferase assay 24 hours post shift to 37° C. Data are represented as mean SEM of three experiments. […] HaCaT cells starved in SFM were exposed to HPV16 in SFM for one hour at 4° C. After washing away unbound virus, cells were incubated for 24 hours in. SFM, SFM containing GF, or in CM. Infections were quantified by luciferase assay; bars represented the mean SEM of three individual experiments. (G). To investigate if infection inhibition by the various agents used in FIG. 7A,D,E could be attributed to cell cycle changes, we used identical conditions and timing of inhibitor treatment on HaCaT cells. We then stained with propidium iodide and examined the cell cycle using flow cytometry. The fractions of cells in G1 (1n), S (intermediate), and G2/M (2n) phases were expressed as percentages of the total.

HaCaT cells = assay: Cell cycle analysis by propidium iodide flow cytometry; assay type: cell-based, human; details: HaCaT cells in CM infected with HPV16, same inhibitor conditions as infection assays
Experimental: as §1, with “To investigate if infection inhibition by the various agents used in FIG. 7A,D,E could be attributed to cell cycle changes, we used identical conditions and timing of inhibitor treatment on HaCaT cells. We then stained with propidium iodide and examined the cell cycle using flow cytometry.” left out

HPV16 [3] = assay: HPV16 release from HaCaT cells into media, L1 immunoblot; assay type: cell-based, human papillomavirus; details: CM, MMP inhibitor, FIG. 2E
Experimental: FIG. 2. HPV16 and syndecan-1 release from the HaCaT cell plasma membrane is MMP dependent. (A, B) Immunoblot for syndecan-1 (polyclonal syndecan-1 Ab) after 24 hours at 37° C. in CM (A) or post starvation in SFM and after six hours at 37° C. in Tyrode's Buffer (B); immunoblot for HPV16 L1 released into CM post virus binding for indicated times (C) or 24 hours (E). (D) Gelatin zymography showing protease activity present in HaCaT cell CM alone or with binding of HPV16. (E-F) Effect of MMP inhibitors batimistat (BM) or marimastat (MM) at the indicated concentrations on HPV16 release into media as in panel C and densitometric quantification with AlphaEaseFC software (E) and relative infection levels (F). Cells were untreated (U) or pre-treated with BM or MM for one hour, then exposed to HPV16 PsV in the presence of inhibitors in CM. Infection was assayed by quantifying luciferase levels at 24 hours p.i. (F). Data are represented as mean±SEM of three experiments. […] HPV16 infection was measured with luciferase assay. […]
HaCaT cells were incubated with 200 vge/cell of HPV PsVs for 1 h at 4° C., washed three ties with media and incubated at 37° C. for various times before harvesting the experimental media. […] The eluted fractions were analyzed by SDS-PAGE followed by immunoblotting for HPV16 L1, proteoglycans and growth factors. […]

Q: How did the “rapid phosphorylation of the target GFR and downstream p-ERK1/2 induced by GFs or HPV16” value [1] turn out when `COc1cc2ncnc(Nc3cccc(Cl)c3)c2cc1OC` [AG1478] was run?
A: completely abrogating signaling

Q: For `C=CC(=O)Nc1ccc2ncnc(Nc3cccc(Br)c3)c2c1` [PD168393], which “infection inhibition when PD168393 treatment was added with monastrol” value (HPV16 [2]; HaCaT, 100 μM monastrol plus PD168393, FIG. 7D) is on record?
A: ≈ 70%

Q: And the “rapid phosphorylation of the target GFR and downstream p-ERK1/2 induced by GFs or HPV16” value [1]?
A: diminished

Q: What about the “cell cycle distribution (G1, S, G2/M) versus no treatment” value (HaCaT cells) of the same compound?
A: relatively similar

Q: Which results are given for `CCN(CC)CCCCNc1ncc2cc(-c3cc(OC)cc(OC)c3)c(NC(=O)NC(C)(C)C)nc2n1` [PD173074]?
A: block of HPV16 infection / reduction of infectivity (HPV16 [2]): 35%; cell cycle distribution (G1, S, G2/M) versus no treatment (HaCaT cells): relatively similar

Q: What does the source list for `CNC(=O)[C@H](Cc1ccccc1)NC(=O)[C@H](CC(C)C)[C@H](CSc1cccs1)C(=O)NO` [batimastat]?
A: visible toxicity in dose-response analysis (HPV16 [2]): absence of visible toxicity; pIC50 (HPV16 [2]): 6.40

Q: With `O=c1c(-c2ccc(O)cc2)coc2cc(O)ccc12` [daidzein] as the compound, how does the “rapid phosphorylation of the target GFR and downstream p-ERK1/2 induced by GFs or HPV16” value [1] read?
A: no inhibitory effect

Q: Which results are given for `O=c1c(-c2ccc(O)cc2)coc2cc(O)cc(O)c12` [genistein]?
A: block of HPV16 infection / reduction of infectivity (HPV16 [2]): almost completely blocked infection; rapid phosphorylation of the target GFR and downstream p-ERK1/2 induced by GFs or HPV16 [1]: diminished

Q: With `CNC(=O)[C@@H](NC(=O)[C@H](CC(C)C)[C@H](O)C(=O)NO)C(C)(C)C` [marimastat] as the compound, how does the “HPV16 infection of HaCaT cells (in words)” value (HPV16 [2]; CM, luciferase 24 hours p.i.) read?
A: efficiently reduced HPV16 infection

Q: What about the “infection inhibition under cell cycle assay conditions” value (HPV16 [2]; HaCaT cells grown in CM and infected with HPV16) of the same compound?
A: ~90%

Q: And the “visible toxicity in dose-response analysis” value (HPV16 [2])?
A: absence of visible toxicity

Q: And the pIC50 (HPV16 [2])?
A: 6.00

Q: And the “release of HPV16 from cells” value (HPV16 [3])?
A: effectively prevented the release

Q: What about the “cell cycle distribution (G1, S, G2/M) versus no treatment” value (HaCaT cells) of the same compound?
A: relatively similar

Q: For EGF: epidermal growth factor, which “restoration of HPV16 infectivity in SFM by added factor” value (HPV16 [2]) is on record?
A: fully restore infection levels

Q: With albumin as the compound, how does the “restoration of HPV16 infectivity in SFM by added factor” value (HPV16 [2]) read?
A: did not enhance infectivity
